{
  "source": "patent US5506239A",
  "about": "“Carbostyril derivative and platelets aggregation inhibitory agent” (Otsuka Pharmaceutical Co., Ltd., priority 1991, dated 1996)",
  "key": {"mongrel dogs": {"system": "mongrel dogs", "details": "dog, in vivo, 300 mg/kg", "experimental": "The heart rate-increasing activity and blood pressure hypotensive activity of each test compound were measured by the following method, using mongrel dogs each weighing 10-20 kg. That is, said dogs were anesthesized by intravenous injection of pentobarbital sodium, then fixed at the back, and tested under artificial respiration. The blood pressures of the dogs were measured by a blood pressure measuring transducer (P23×L manufactured by Gould Statham Instruments, Inc.) via cannula inserted into the femoral artery. The heart rates of the dogs were measured using the pulse wave of the blood pressure of each dog, via a tachometer. The signals of these testng apparatuses were recorded on a thermal pen-type recorder (Recti-Horize 8K manufactured by Nippon Denki-San-ei Sha).\nSome of the compounds obtained in the above Examples were used as test compounds. […] Then, the heart rate of each dog was measured according to the above method and a maximum change in heart rate was calculated."}, "platelets [1]": {"system": "platelets", "experiment": "Platelets aggregation inhibitory activity (method of Born et al.), collagen-induced, human PRP (Pharmacological Test I)", "format": "cell-based, man", "details": "Homo sapiens, Platelet, 20 μg/ml collagen, 37° C., read-out: IC50 Collagen (50% platelets aggregation inhibition)", "experimental": "(§1) The platelets aggregation inhibitory activity of each test compound was measured by the method of Born et al. [J. Physiol., London, 162, 67 (1962)], using Platelets Aggregation Tracer manufactured by Nikoh Bioscience Co., Ltd.\n(§2) 9 volumes of a blood collected from person was mixed with 1 volume of a 3.8% aqueous sodium citrate solution. Part of the mixture was subjected to centrifugation at 1,100 rpm for 10 minutes to obtain a platelet rich plasma (PRP). The remainder of the mixture was also subjected to centrifugation at 3,000 rpm for 10 minutes to obtain a platelet poor plasma (PPP).\n(§3) The number of platelets in the PRP was measured using Coulter Counter manufactured by Coulter Electronics Inc. Then, the PRP was diluted with the PPP so that the number of platelets in the dilution became 300,000, whereby a PRP solution was prepared.\n(§4) 200 μl of this PRP solution and 2 ml of a solution containing a test compound at a given concentration were placed in an aggregation measurement cell and heated at 37° C. for 1 minute. Thereto was added 20 μl of adenosine diphosphate (ADP manufactured by Sigma Co.) or a collagen suspension (Collagen Reagent manufactured by Horm, Hormon-Chemie, Gmbh) to induce aggregation of platelets. The resulting mixture in the cell was measured for change of transmittance, after which a platelets aggregation curve was prepared. Incidentaly, the concentration of ADP or collagen was selected so that the final Concentration became 7.5 μM or 20 μg/ml.\n(§5) Using the platelets aggregation curve, there was calculated a maximum aggregation rate (MAR) of platelets using the followoing formula: […]\n(§6) wherein a represents a transmittance of the PRP obtained in the same manner; c represents a transmittance of the PPP obtained in the same manner; and b represents a transmittance at the maximum change, of the PRP solution containng the test compound and the aggregation inducer.\n(§7) A MAR was also calculated as above, for the control containing no test compound.\n(§8) Using the above two MARs, there were calculated platelets aggregation inhibitions (%) of each test compound at various concentrations using the following formula.\n(§9) Inhibition=[1-(MAR of PRP solution containing test compound)/(MAR of PRP\n(§10) solution containing no test compound)]×100\n(§11) Using the above obtained platelets aggregation inhibitions (%) of each test compound at various concentrations, there was calculated a concentration (IC50) of each test compound for 50% platelets aggregation inhibition."}, "platelets [2]": {"system": "platelets", "experiment": "Platelets aggregation inhibitory activity (method of Born et al.), ADP-induced, human PRP (Pharmacological Test I)", "format": "cell-based, man", "details": "Homo sapiens, Platelet, 7.5 μM ADP, 37° C., read-out: IC50 ADP (50% platelets aggregation inhibition)", "experimental": "as §1, §2, §3, §4, §5, §6, §7, §8, §9, §10, §11"}, "[3]": {"target": "T1, cyclic AMP phosphodiesterase (Homo sapiens, UniProt Q14432)", "T1 construct": "the resulting supernatant liquid was used as a crude enzyme solution; from tissue; host or cells: human platelets (from platelet-rich plasma)", "T1 sequence (Q14432 whole entry)": "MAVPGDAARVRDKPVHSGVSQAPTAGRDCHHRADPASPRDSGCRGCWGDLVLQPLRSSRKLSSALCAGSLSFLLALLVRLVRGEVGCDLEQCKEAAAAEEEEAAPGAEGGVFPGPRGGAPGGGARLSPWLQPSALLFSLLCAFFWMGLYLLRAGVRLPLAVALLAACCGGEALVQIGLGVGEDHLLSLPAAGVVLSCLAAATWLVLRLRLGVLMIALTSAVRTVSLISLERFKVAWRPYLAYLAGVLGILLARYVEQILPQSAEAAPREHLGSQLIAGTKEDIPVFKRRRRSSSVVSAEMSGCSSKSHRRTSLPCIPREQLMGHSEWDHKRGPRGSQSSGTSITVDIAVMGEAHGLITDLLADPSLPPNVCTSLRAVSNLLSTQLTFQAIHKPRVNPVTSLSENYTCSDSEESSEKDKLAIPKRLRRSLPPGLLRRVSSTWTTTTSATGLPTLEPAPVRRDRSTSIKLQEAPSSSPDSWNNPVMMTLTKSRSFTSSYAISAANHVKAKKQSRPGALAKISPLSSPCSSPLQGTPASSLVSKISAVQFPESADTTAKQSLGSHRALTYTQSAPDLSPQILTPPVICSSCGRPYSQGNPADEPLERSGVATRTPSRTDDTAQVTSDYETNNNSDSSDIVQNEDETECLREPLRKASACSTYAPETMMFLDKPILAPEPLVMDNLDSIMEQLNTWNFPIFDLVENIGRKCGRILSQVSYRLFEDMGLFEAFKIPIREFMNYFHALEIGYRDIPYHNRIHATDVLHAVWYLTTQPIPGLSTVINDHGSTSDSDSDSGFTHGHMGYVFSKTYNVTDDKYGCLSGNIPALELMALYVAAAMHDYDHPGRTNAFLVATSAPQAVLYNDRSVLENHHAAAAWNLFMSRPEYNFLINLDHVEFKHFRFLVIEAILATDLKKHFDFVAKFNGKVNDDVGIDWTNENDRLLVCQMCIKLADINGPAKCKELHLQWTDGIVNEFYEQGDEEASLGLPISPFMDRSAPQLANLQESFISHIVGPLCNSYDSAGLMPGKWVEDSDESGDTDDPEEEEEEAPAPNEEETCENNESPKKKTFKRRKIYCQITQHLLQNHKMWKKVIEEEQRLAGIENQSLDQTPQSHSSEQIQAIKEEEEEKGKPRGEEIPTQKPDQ", "experiment": "Cyclic AMP phosphodiesterase inhibitory activity, enzyme from human platelets (Pharmacological Test IV)", "format": "biochemical, man", "details": "0.4 μM cyclic AMP substrate, 30° C., 20 minutes, human platelet enzyme; read-out: IC50 (50% phosphodiesterase inhibition concentration)"}, "platelets [4]": {"system": "platelets", "experiment": "Inhibition of collagen-induced platelets adhesion, washed platelets (Pharmacological Test III)", "format": "cell-based, man", "details": "Platelet; dose 3 μM; 50 μg/ml collagen; human washed platelets; read-out: Inhibition (%) of collagen-induced platelets adherence", "experimental": "A blood was collected from a healthy person with normal platelets function by addition of 0.1% disodium ethylenediaminetetraacetate (EDTA.4Na) and immediately subjected to separation of a platelet rich plasma (PRP). The PRP was washed twice with a Tyrode's buffer solution (50mM TRIS, 0.1% EDTA, Ca (-), Mg (-), 0.14% BSA added, pH=7.4), and suspended in the buffer solution so that the number of platelets in the resulting suspension became 300, 000/ml, to obtain a platelets suspension (EDTA-WP). 4 mg of Type I manufactured by Sigma Co., derived from a bovine skin was dissolved in 0.25 ml of acetic acid (83.5 mM); 8 ml of distilled water was added thereto; an ultrasonic wave was applied to the mixture at 4° C. for 2 minutes; 5 ml of the supernatant liquid was separated as a collagen solution. Each test compound was dissolved in dimethylformamide (DMF) so as to give a concentration of at least […] when possible, to prepare a test compound solution. The change in turbidity of platelets suspension was recorded as a change in transmitted light emitted from a glass cell containing the suspension, using a platelets aggregation tracer manufactured by Nikoh Bioscience K.K., generally used in the test of platelets aggregation function, whereby the adherence of platelets was measured. Incidentally, in recoridng the change in transmitted light, the sensitivity of the recorder was 5 times as high as that used generally. 200 μl of the EDTA-WP was placed in a glass cell exclusively used for the above platelets aggregation tester. Further, 1 μl of the test compound solution was added. The mixture was incubated at room temperature for 5 minutes. Then, the cell was set in the platelets aggregation tracer and was allowed to stand for 1 minute until the temperature became 37° C. Thereafter, about 20 μl (50 μg/ml) of the collagen solution was added, and the adherence of platelets were measured.\nThe inhibitions (%) of collagen-induced platelets adhesion by each test compound at various concentrations were calculated using the following formula.\nInhibition (%)=[1-(platelets adherence when test compound added)/\n(platelets adherence when no test compound added)]×100"}},
  "data": [
    {"smiles": "O=c1ccc2cc(OCCCS(=O)(=O)N(CCN3CCC(O)CC3)C3CCCCCCC3)ccc2[nH]1", "note": "[Example 85]", "values": [
      {"measurement": "Maximum change in heart rate", "setting": "mongrel dogs", "value": 13, "unit": "beats/minute"},
      {"measurement": "IC50", "setting": "platelets [1]", "value": 570, "unit": "nM"},
      {"measurement": "IC50", "setting": "platelets [2]", "value": 2100, "unit": "nM"},
      {"measurement": "IC50", "setting": "[3]", "value": "< 100", "unit": "nM"},
      {"measurement": "inhibition at 3 µM", "setting": "platelets [4]", "value": 50, "unit": "%"}
    ]}
  ]
}
